Measured values published in US11492325B2, “Compounds as inhibitors of sodium channels” (Human BioMolecular Research Institute, priority 2016, dated 2022).
Read-outs that look alike come from different tables or passages of the source. Values belong to the compound of their own block, whether it stands above or below them.

What was measured:
[1] = system: normal human induced pluripotent stem cell (hiPSC) cardiomyocyte; settings: for WT-Cessation Dose (μM): WT cardiomyocytes, cessation of beating
[2] = system: cardiomyocytes derived from hiPSCs from a LQTS3 patient; settings: for LQT-EC50 (μM) Shortening: AP shortening; for LQT-3 shortening (in words): LQT-3 cells
[3] = system: normal human induced pluripotent stem cell (hiPSC) cardiomyocyte; test: cells; settings: read-out: WT-EC50 (μM) Prolongation
[4] = Metabolic stability in human liver microsomes; format: in vitro ADME
Experimental: (§1) A typical incubation contained rat, mouse, dog or human liver microsomes (0.4-0.5 mg of protein), 100 mM potassium phosphate buffer (pH7.4), 50 μM test compound, an NADPH-generating system consisting of 0.5 mM NADP^+, 0.5 mM glucose-6-phosphate, 1 IU/mL glucose-6-phosphate dehydrogenase, 1 mg/mL diethylenetriaminepentaaceticacid (DETAPAC), and 3 mM MgCl2 in a final incubation volume of 0.25 mL. […] After centrifugation at 3000 rpm for 5 min, the organic fraction was collected, the solvent was removed with a stream of argon and the residue was reconstituted in 125 μL of MeOH and 125 μL H2O, mixed thoroughly, centrifuged at 13,000 rpm for 5 min and analyzed by high performance liquid chromatography. Samples were run on a Hitachi D-7000 HPLC system using a L-7100 analytical pump, L-7400 UV-Visible variable wavelength detector, and L-7600 automatic sample injector. […] Disappearance of the analyte was monitored over time. A plot of the area under the curve for the normalized analyte versus time afforded the half-life values and kapp.

[5] = Metabolism in human hepatic S9; settings: for Liver S-9, remaining after 1 hr: human, s9, 1 h
Experimental: as §1
Microsomes contain CYPs and FMO metabolic enzymes. S9 contains soluble enzymes (i.e., aldehyde oxidase, MAO, etc.).

[6] = system: Male BALBc mice; settings: for behavioral effects at 100 mg/kg: enantiomers
Description: Male BALBc mice (20-22 g) were used throughout these studies. The animals were maintained in a temperature-controlled room with 12-hr periods of light and darkness and had continuous access to water and animal food. […] Groups contained 2-4 animals.

[7] = system: cardiomyocytes derived from hiPSCs from a LQTS3 patient; test: cells; settings: Homo sapiens, Cardiomyocyte; for IC50: read-out: LQT-IC50 (uM)-Shortening
[8] = Chemical stability in PBS buffer at pH 7.4 or 3.0, 37° C.; format: physicochemical; settings: 1% Ethanol
Experimental: A typical incubation contained 100 μM of the test compound prepared in PBS buffer (pH 7.4 or 3.0, 50 mM) with 1% Ethanol. The test compounds were incubated at 37° C. An aliquot from incubations was taken at various times and injected onto an RP-HPLC system as described above. Disappearance of the analyte was monitored over time.

[9] = target: Nav1.5 sodium channel transfected into HEK293 cells (Homo sapiens, UniProt Q14524); test: in vitro
Experimental: (§2) This provided data to investigate the physiology and action of target compounds on individual ion channels. The assay used standardized protocols for culturing and conducting conventional whole cell recording that have been previously developed for both current and voltage-clamp to characterize action potentials using transfected cells. Briefly, the Nav1.5 sodium channel was transfected into HEK293 cells. […] Briefly, cells were plated on 0.1% gelatin-coated 35-mm plastic Petri dishes. […] Data was reported as IC50 values±STD (Table 1).

[10] = target: Nav1.5 sodium channel, peak current (INaP) (Homo sapiens, UniProt Q14524, form not given); test: in vitro; settings: Peak Na+ (INaP) IC50
Experimental: as §2

[11] = target: Na+ channel currents in LQT3 patient-derived cardiomyocytes (Homo sapiens, UniProt Q14524); test: Whole cell patch clamp of Na+ currents (INaP, INaL) in hIPSC LQT3 patient-derived cardiomyocytes; format: cell-based; settings: whole-cell voltage clamp, steps -80 mV to +40 mV, table title says transfected CHO cells
Experimental: Patch clamp recordings from hIPSC LQT3 patient-derived cardiomyocytes for Na+ channel currents were recorded in response to computed voltage waveforms that simulated adult ventricular action potentials.
The basis for LQT3 is a mutation in SCN5a that encodes the voltage-gated Na channel responsible for cardiac action potential. The Na current (INa) has peak and late components: the peak component initiates the action potential but as voltage rises, the channel normally inactivates. […] The LQT3 mutation impairs inactivation. The late component is then enlarged, resulting in action potential prolongation. […] Whole cell patch clamp electrophysiology experiments in LQTS3 cardiomyocytes helped determine the functional activity of drug candidates for inhibition of the late sodium current in the cells. Thus, we tested compounds for Peak (INaP) and Late (INaL) components. They were recorded in a “whole-cell” voltage-clamp mode configuration in response to voltage stimulation steps from −80 mV to +40 mV and their IC50 values determined (Table 1).

[12] = Solubility (water; 10:30:60% DMSO:PEG400:water vehicle); format: physicochemical
[13] = target: hERG potassium channel (IKr) (Homo sapiens, UniProt Q12809); test: Automated patch clamp, hERG (IKr) expressed in CHO cells; settings: for IC50: hERG (IKr) IC50, CHO cells
[14] = read-out: LQT-EC50 (μM) Shortening, LQT-3 cardiomyocytes, AP shortening
[15] = pH 7.4, 100 μM in PBS, read-out: Half-Life @ pH 7.4 and 37° C.
[16] = 'No AP' wraps to 'No AP shortening'

Sequence of hERG potassium channel (IKr) (Q12809 whole entry): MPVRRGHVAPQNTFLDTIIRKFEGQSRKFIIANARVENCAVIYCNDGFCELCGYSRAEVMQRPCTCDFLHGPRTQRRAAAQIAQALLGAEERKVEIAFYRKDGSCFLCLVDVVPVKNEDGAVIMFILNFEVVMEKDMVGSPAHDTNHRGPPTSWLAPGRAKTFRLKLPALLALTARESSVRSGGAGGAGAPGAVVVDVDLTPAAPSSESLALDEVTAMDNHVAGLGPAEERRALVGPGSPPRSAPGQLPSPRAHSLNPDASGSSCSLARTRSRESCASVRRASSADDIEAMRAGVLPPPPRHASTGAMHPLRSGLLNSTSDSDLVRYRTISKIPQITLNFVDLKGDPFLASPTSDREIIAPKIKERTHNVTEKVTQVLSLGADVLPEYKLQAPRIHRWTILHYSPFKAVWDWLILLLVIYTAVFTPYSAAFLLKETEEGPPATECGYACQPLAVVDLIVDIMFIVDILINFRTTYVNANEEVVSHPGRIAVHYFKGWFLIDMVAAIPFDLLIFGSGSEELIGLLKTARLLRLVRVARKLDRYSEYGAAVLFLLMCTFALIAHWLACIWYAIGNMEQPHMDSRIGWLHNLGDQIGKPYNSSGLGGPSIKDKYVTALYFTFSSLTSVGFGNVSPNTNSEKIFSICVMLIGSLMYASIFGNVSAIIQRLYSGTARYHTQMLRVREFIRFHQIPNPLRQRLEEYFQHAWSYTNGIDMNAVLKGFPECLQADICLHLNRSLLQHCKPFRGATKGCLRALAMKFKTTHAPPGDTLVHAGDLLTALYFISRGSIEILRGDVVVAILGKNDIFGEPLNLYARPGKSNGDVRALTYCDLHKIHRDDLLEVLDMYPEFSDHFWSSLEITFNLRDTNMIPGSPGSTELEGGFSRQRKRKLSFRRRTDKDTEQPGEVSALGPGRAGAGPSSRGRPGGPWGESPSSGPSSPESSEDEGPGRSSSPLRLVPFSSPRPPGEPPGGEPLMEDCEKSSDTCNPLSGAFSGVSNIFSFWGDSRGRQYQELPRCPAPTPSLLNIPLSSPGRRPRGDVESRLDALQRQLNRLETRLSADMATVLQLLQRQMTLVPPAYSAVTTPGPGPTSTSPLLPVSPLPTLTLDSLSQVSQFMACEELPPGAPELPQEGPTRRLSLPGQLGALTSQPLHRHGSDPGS
Sequence of Na+ channel currents in LQT3 patient-derived cardiomyocytes (Q14524 whole entry F1473C, form open): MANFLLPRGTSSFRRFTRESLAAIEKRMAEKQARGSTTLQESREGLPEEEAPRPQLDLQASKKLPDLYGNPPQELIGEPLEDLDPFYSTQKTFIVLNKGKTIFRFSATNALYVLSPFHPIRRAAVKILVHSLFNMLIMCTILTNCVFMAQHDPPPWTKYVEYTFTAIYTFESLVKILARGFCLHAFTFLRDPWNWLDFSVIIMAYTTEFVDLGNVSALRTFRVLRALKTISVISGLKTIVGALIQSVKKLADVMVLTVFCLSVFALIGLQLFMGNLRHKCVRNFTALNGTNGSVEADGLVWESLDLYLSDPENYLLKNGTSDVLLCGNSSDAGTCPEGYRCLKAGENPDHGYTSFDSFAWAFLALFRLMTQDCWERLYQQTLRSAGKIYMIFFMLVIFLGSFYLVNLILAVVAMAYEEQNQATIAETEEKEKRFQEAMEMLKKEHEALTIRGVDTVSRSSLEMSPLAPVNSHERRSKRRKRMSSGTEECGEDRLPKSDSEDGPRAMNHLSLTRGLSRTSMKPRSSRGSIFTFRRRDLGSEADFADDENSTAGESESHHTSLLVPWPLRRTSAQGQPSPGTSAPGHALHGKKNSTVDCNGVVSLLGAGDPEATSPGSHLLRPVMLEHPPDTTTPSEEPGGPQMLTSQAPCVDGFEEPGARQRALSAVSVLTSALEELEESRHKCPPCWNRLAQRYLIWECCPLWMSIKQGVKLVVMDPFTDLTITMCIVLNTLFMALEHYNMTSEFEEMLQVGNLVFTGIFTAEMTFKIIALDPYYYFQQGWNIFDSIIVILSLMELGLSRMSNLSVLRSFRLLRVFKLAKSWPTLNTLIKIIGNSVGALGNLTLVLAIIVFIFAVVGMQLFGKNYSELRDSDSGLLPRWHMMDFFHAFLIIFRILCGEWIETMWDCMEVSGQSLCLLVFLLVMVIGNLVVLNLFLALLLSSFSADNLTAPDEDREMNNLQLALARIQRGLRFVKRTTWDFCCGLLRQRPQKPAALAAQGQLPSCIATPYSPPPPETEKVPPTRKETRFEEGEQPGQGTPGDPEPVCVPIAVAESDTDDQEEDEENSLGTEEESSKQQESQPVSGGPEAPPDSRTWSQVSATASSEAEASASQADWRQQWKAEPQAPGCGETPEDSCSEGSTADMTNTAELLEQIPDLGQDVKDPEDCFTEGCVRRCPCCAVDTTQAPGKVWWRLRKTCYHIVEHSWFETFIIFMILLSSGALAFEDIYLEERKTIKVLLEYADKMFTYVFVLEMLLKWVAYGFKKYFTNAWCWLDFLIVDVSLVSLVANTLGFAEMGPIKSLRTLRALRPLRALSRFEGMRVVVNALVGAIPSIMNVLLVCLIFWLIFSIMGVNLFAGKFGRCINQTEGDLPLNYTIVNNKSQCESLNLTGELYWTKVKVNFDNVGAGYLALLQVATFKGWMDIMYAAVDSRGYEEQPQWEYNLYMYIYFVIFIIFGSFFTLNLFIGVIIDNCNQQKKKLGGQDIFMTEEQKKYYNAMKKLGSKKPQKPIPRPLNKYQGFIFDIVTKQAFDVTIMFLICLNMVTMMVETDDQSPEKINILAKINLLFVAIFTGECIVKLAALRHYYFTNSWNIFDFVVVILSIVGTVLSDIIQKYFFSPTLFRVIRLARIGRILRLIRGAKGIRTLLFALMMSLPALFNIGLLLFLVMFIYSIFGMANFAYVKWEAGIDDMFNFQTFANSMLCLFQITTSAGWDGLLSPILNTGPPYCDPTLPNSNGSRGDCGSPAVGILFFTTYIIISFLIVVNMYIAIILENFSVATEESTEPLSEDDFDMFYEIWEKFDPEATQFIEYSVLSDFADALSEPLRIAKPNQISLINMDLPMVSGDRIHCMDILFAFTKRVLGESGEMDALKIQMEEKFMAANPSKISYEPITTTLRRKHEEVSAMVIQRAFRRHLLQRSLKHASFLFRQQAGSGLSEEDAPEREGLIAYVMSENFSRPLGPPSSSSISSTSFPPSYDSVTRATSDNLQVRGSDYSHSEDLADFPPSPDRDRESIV

Structure (SMILES): NC(COc1cnccc1C(F)(F)F)c1ccccc1 (centres unmarked) [Compound 115]
WT-Cessation Dose (μM) [1]: No cessation of beating | LQT-Fold Shortening ([2]; LQT-3 cardiomyocytes): Does Not Shorten | LQT-Shortening Dose (μM) ([2]; LQT-3 cardiomyocytes): Does Not Shorten | LQT-EC50 (μM) Shortening ([2]; LQT-3 cardiomyocytes): Does Not Shorten | EC50 [3]: 25.7 µM

Structure (SMILES): Cl.NC(COc1cc(C(F)(F)F)cc(C(F)(F)F)c1)c1ccccc1 (stereo in doubt) [(R)-78]
Liver Microsomes, remaining after 1 hr ([4]; human, microsomes, 1 h): >95% after 1 hr | Liver S-9, remaining after 1 hr [5]: >95% after 1 hr | Behavior Effect (R)-enantiomer ([6]; mice, 100 mg/kg): No detectable effect | behavioral effects at 100 mg/kg ([6]; mice, 100 mg/kg): no apparent behavioral effects

cessation of beating (in words) ([2]; at the concentrations examined, cells not specified): did not induce cessation of beating
Structure (SMILES): NC(COc1ccccc1C(F)(F)F)c1ccc2ccccc2c1 (centres unmarked) [Compound 134]
prolongation effects in wild type cells ([1]; wild type cells): some prolongation effects | LQT-Fold Shortening ([2]; LQT-3 cardiomyocytes): 1.515 | LQT-Cessation Dose (μM) ([2]; LQT-3 cardiomyocytes, cessation of beating): No cessation of beating | LQT-3 shortening (in words) [2]: highly potent | EC50 [3]: 24.4 µM | EC50 [7, 14]: 1.79 µM

Structure (SMILES): Cl.NC(COc1ccccc1C(F)(F)F)c1ccccc1 (stereo in doubt) [(S)-82]
Liver Microsomes T1/2 ([4]; human, microsomes): 0.253 days | Liver S-9, remaining after 1 hr [5]: >95% after 1 hr | Behavior Effect (S)-enantiomer ([6]; mice, 100 mg/kg): 2/4 slightly lethargic | behavioral effects at 100 mg/kg ([6]; mice, 100 mg/kg): Minor lethargy

Structure (SMILES): NC(COc1ccccc1C(F)(F)F)c1ccccc1 (centres unmarked) [drawing 312]
half-life at 100 μM ([8]; pH 3, 100 μM in PBS, read-out: Half-Life @ pH 3.0 and 37° C.): > 15 days | half-life at 100 μM [8, 15]: > 30 days

Structure (SMILES): COCCNC(COc1cccnc1)c1ccccc1 (centres unmarked) [Compound 121]
WT-Cessation Dose (μM) [1]: No cessation of beating | LQT-Fold Shortening ([2]; LQT-3 cardiomyocytes): 1.144 | LQT-3 shortening (in words) [2]: moderate shortening | EC50 [3]: 25.4 µM | EC50 [7, 14]: 2.58 µM

Structure (SMILES): COCCNC(COc1ccncc1)c1ccccc1 (centres unmarked) [Compound 127]
WT-Cessation Dose (μM) [1]: No cessation of beating | LQT-Fold Shortening ([2]; LQT-3 cardiomyocytes): Does Not Shorten | LQT-Shortening Dose (μM) ([2]; LQT-3 cardiomyocytes): Does Not Shorten | LQT-EC50 (μM) Shortening ([2]; LQT-3 cardiomyocytes): Does Not Shorten | EC50 [3]: 97.7 µM

Structure (SMILES): COCCNC(COc1cccc(C)c1C)c1ccccc1 (racemic) [Compound 36, 2-(2,3-dimethylphenoxy)-N-methoxy-ethyl-1-phenylethanamine]
IC50 [9]: 0.747 µM | IC50 [10]: 25.8 µM | IC50 ([11]; read-out: IC50 for INaL): 0.38 µM | IC50 ([11]; read-out: IC50 for INaP): 51.8 µM | metabolism in human liver microsomes judged by HPLC [4]: metabolized | metabolism in human liver S-9 judged by HPLC [5]: detectably metabolized | behavioral/toxic effects at 200 mg/kg ([6]; mouse, in vivo, ip, 200 mg/kg): slight lethargy | solubility (in words) [12]: good solubility | Cessation of Beating ([1]; normal hiPSC cardiomyocytes): None | LQT-Cessation Dose ([2]; LQT3 cardiomyocytes): 200 µM | LQT-Fold Shortening ([2]; LQT3 cardiomyocytes): 1.508 | IC50 [7]: 5.73 µM | IC50 [13]: 27.6 µM | IC50 ([13]; Example 2): 27.6 µM | DKr/NaL ([13]; ratio hERG IC50/late Na IC50): 36.9 | DNaP/Kr ([13]; ratio peak Na IC50/hERG IC50): 0.9 | DKr/NaL ([13]; ratio, Example 2): 36.9 | DNaP/Kr ([13]; ratio, Example 2): 0.93

Structure (SMILES): Cc1cc(C)c(OCC(N)c2ccccc2)cn1 (centres unmarked) [Compound 120]
WT-Cessation Dose (μM) [1]: No cessation of beating | LQT-Fold Shortening ([2]; LQT-3 cardiomyocytes): Does Not Shorten | LQT-Shortening Dose (μM) ([2]; LQT-3 cardiomyocytes): Does Not Shorten | LQT-EC50 (μM) Shortening ([2]; LQT-3 cardiomyocytes): Does Not Shorten | EC50 [3]: 7.33 µM

Structure (SMILES): Cl.NC(COc1cc(C(F)(F)F)cc(C(F)(F)F)c1)c1ccccc1 (centres unmarked) [Compound 78, 2-(3,5-bis(trifluoromethyl)phenoxy)-1-phenylethan-1-amine]
DNap/NaL ([9]; ratio peak IC50/late IC50): 19.4 | DNap/NaL ([9]; ratio peak/late IC50, Example 2): 19.4 | IC50 [10]: 20 µM | half-life at 50 μM ([4]; human, liver microsomes, pH 7.4, liver microsomes + NADPH, species (human), read-out: metabolic stability in liver microsomes T1/2): > 0.0417 days | half-life at 100 μM [8, 15]: > 30 days | solubility (in words) [12]: good solubility | WT-Prolong. Dose ([1]; 'No AP' wraps to 'No AP Prolong.'): No AP | WT-Fold Prolongation ([1]; APD, normal hiPSC cardiomyocytes): None | WT-Cess. Dose ([1]; deuterated vs non-deuterated): 133 µM | WT-EC50 (μM)-Prolong. ([1]; deuterated vs non-deuterated, 'No AP' wraps to 'No AP prolongation'): No AP | Cessation of Beating ([1]; normal hiPSC cardiomyocytes): 133 µM | WT-Prolongation Dose ([1]; normal hiPSC cardiomyocytes): None | LQT-Fold Shortening [2, 16]: 1.208 | LQT-Shortening Dose [2, 16]: 22 µM | LQT-Cessation Dose ([2]; LQT3 cardiomyocytes): 66 µM | LQT-Fold Shortening ([2]; LQT3 cardiomyocytes): 1.208 | LQT-Cess. Dose ([2]; deuterated vs non-deuterated): 66 µM | EC50 ([7]; read-out: LQT-EC50 (μM)-Shortening): 23.1 µM | IC50 [7]: 23.1 µM | IC50 ([13]; Example 2): 7.2 µM | DKr/NaL ([13]; ratio, Example 2): 7.0 | DNaP/Kr ([13]; ratio, Example 2): 2.77
